Measured values taken from patent US7138262B1, “High mannose proteins and methods of making high mannose proteins” (Shire Human Genetic Therapies, Inc., priority 2000, dated 2006).

Columns and labels:
[1] = system: HT-1080 cells producing GA-GCB; assay: Roller bottle production of glucocerebrosidase (GA-GCB) in cells treated with mannosidase inhibitors; format: cell-based, human; details: for Glucocerebrosidase Activity, Harvest 1: medium harvested about every 24 hours, specific activity 2,500 Units/mg
Method: Ten roller bottles (surface area, 1700 cm^2 each) were seeded in Growth Medium (DMEM with 10% calf serum) with HT-1080 cells producing GA-GCB. Following two weeks of growth, the medium was aspirated and 200 mL of fresh Production Medium (DMEM/F12, 0% calf serum) was added to three sets of roller bottles. Two sets of 4 roller bottles were treated with 1 μg/mL of either kifunensine or swainsonine. The third group of two roller bottles received no drug treatment. After approximately 24 hours, the medium from each roller bottle was harvested, pooled and a sample taken for GA-GCB enzymatic activity analysis. This procedure was repeated for seven days. […] Absolute levels of the enzyme, however, varied according to drug treatment group with the following average GA-GCB production levels observed across the seven harvests: 38.3±3.5 mg/L (control, no drug treatment), 24.5±4.0 mg/L (swainsonine, 1 μg/mL), and 21.3±2,8 mg/L (kifunensine, 1 μg/mL).

mouse J774E cells = assay: Internalization (uptake) of glucocerebrosidase into J774E macrophage cells, with or without mannan; format: cell-based; details: producing cells treated with 1 μg/mL of drug
Method: GA-GCB produced in HT-1080 cells was used in an in vitro assay to determine uptake efficiency in a mouse macrophage cell line. The specific objective of the experiment was to determine the absolute and mannose receptor-specific uptake of GA-GCB in mouse J774E cells. One day prior to assay, J774E cells were plated at 50,000 cells/cm^2 in 12 well plates in Growth Medium. For the assay, 0.5 mL of Production Medium (DMEM/F12), 0% calf serum) containing 50 nM vitamin D3 (1,2-5, Dihydroxy vitamin D3) was added to the cells. Unpurified GA-GCB (from harvest 4, Table 1) was added to the test wells at a final concentration of 10 μg/mL in the presence or absence of 2 μg/mL mannan (a competitor for the mannose receptor). Three different forms of GA-GCB were used: GA-GCB from cells treated with kifunensine (1 μg/mL), GA-GCB from cells treated with swainsonine (1 μg/mL), and GA-GCB (1 μg/mL) from untreated cells. Control wells received no GA-GCB. The wells were incubated for 4 hours at 37° C., then washed extensively in buffered saline, scraped into GA-GCB enzyme reaction buffer, passed through 2 freeze/thaw cycles, and clarified by centrifugation. The supernantant was then quantitatively tested for enzyme activity and total protein. Internalization of GA-GCB into mouse J744E cells is shown in Table 2 and is reported as Units/mg of cell lysate. […]

[2] = system: HT-1080 cells producing GA-GCB; assay: Isoelectric focusing (IEF) analysis of GA-GCB glycoforms from cells treated with kifunensine or swainsonine; format: cell-based, human; details: for apparent isoelectric point (pI) of GA-GCB: 0.1 to 2 μg/mL drug, samples from the third day
Method: HT-1080 cells producing GA-GCB were plated in duplicate 6-well plates and the Production Medium adjusted to the following concentrations of kifunensine or swainsonine: 0 (no drug), 0.1, 0.25, 0.5, 1, and 2 μg/mL. The medium was harvested and the cells refed every 24 hours for three days. The samples from the third day were subjected to isoelectric focusing (IEF) analysis. The effect of kifunensine and swainsonine on the molecular charge of GA-GCB is shown by the IEF analysis.

[3] = inhibitor 1 μg/ml, across seven harvests

| Structure (SMILES) | reduction of GA-GCB production relative to control ([1]; inhibitor 1 μg/mL, average of seven harvests) | Glucocerebrosidase Activity, Average ± Standard Deviation [1, 3] | Glucocerebrosidase Activity, Harvest 2 ([1]; inhibitor 1 μg/ml) | Glucocerebrosidase Activity, Harvest 3 ([1]; inhibitor 1 μg/ml) | Glucocerebrosidase Activity, Harvest 4 ([1]; inhibitor 1 μg/ml) | Glucocerebrosidase Activity, Harvest 5 ([1]; inhibitor 1 μg/ml) | Glucocerebrosidase Activity, Harvest 6 ([1]; inhibitor 1 μg/ml) | Glucocerebrosidase Activity, Harvest 7 ([1]; inhibitor 1 μg/ml) | Glucocerebrosidase Activity, Harvest 1 ([1]; inhibitor 1 μg/ml) | greater uptake of GA-GCB with kifunensine than with swainsonine (mouse J774E cells) | apparent isoelectric point (pI) of GA-GCB [2] | shift in pI of GA-GCB, compared between the drugs ([2]; highest concentration tested (2 μg/mL)) | average GA-GCB production level across the seven harvests ([1]; inhibitor 1 μg/mL) | GA-GCB production level, average ± SD [1, 3] |
| --- | --- | --- | --- | --- | --- | --- | --- | --- | --- | --- | --- | --- | --- | --- |
| O=C1N[C@@H]2[C@@H](O)[C@@H](O)[C@H](O)[C@@H](CO)N2C1=O [Kifunensine, kifunensine] | 44% | 21.3 ± 2.8 mg/L | 22.9 mg/L | 17.7 mg/L | 21.2 mg/L | 18.4 mg/L | 21.0 mg/L | 22.0 mg/L | 26.0 mg/L | approximately 2 fold | concentration dependent increase | much larger shift in pI than swainsonine |  |  |
| O[C@H]1[C@H]2[C@H](O)CCCN2C[C@H]1O [Swainsonine, swainsonine] |  |  | 17.4 mg/L | 28.5 mg/L | 27.0 mg/L | 22.9 mg/L | 25.0 mg/L | 22.3 mg/L | 28.6 mg/L |  | concentration dependent increase |  | 24.5 ± 4.0 mg/L | 24.5 ± 4.0 mg/L |
